Measured values as given in patent US20240025875A1, “A COMPOUND AS A THYROID HORMONE BETA RECEPTOR AGONIST AND USE THEREOF” (SUNSHINE LAKE PHARMA CO., LTD., priority 2020, published 2024).

Columns and labels:
[1] = biological target: T1, TRβ (Homo sapiens, UniProt P10828); experiment: LanthaScreen TR-FRET Thyroid Receptor beta Coactivator Assay (in vitro binding activity); conditions: TR beta-LBD
T1 construct: 5 μL of 4×TR beta/alfa-LBD; purchased Invitrogen PV4686
T1 sequence (P10828 217-461 limits assumed): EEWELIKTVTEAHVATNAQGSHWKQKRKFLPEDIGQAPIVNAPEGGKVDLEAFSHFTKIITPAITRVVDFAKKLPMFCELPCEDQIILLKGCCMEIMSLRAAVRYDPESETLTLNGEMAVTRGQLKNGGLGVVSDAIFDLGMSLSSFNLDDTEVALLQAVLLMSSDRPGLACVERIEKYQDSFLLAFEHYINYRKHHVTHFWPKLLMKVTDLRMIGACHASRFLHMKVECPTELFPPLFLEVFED
Protocol: (§1) 2. Detection of the Binding Activity of the Compound of the Present Invention to TRα or TRβ In Vitro
(§2) Test Materials • LanthaScreen TR-FRET Thyroid Receptor beta Coactivator Assay kit was purchased from Invitrogen, Cat. No. PV4686; • LanthaScreen TR-FRET Thyroid Receptor alfa Coactivator Assay kit was purchased from Invitrogen, Cat. No. PV4687.
(§3) The method was experimented with LanthaScreen TR-FRET Thyroid Receptor beta/alfa Coactivator Assay kit. The test compound was dissolved in DMSO and diluted 3 times to a total of 10 concentrations, and then diluted with TR-FRET Coregulator Buffer C in the kit to form a solution containing 2% DMSO, 10 μL of the solution containing 2% DMSO was taken into a 384-well plate, then 5 μL of 4×TR beta/alfa-LBD, 5 μL of a mixture containing 0.4 μM fluorescein-SRC2-2 and 8 nM Tb anti-GST antibody were added into each well, mixed thoroughly, and incubated at room temperature for 1 h in the dark. After 1 h, BMG LABTECH's PHERAstar FSX microplate reader was used to read the fluorescence value (RFU) at […]. The TR-FRET ratio was calculated by dividing the emission signal at 520 nm by the emission signal at 495 nm. Graph Pad Prism 5 software was used to draw the curve and calculate the EC50 value. The in vitro binding activity test results of some of the compounds of the examples of the present invention are shown in Table 1 below.

[2] = biological target: T2, TRα (Homo sapiens, UniProt P10827); experiment: LanthaScreen TR-FRET Thyroid Receptor alfa Coactivator Assay (in vitro binding activity); conditions: TR alfa-LBD
T2 construct: 5 μL of 4×TR beta/alfa-LBD; purchased Invitrogen PV4687
T2 sequence (P10827 163-410 isoform P10827-2 limits assumed, other chains not shown): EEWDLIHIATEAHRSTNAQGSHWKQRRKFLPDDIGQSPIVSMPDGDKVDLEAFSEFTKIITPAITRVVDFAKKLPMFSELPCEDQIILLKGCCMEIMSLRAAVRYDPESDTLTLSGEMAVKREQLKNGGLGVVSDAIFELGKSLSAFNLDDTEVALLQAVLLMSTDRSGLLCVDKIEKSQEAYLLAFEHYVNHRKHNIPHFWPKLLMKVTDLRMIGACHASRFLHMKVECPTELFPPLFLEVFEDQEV
Protocol: as §1, §2, §3

[3] = Pharmacokinetic determination in SD rats (i.v. and i.g.); assay type: in vivo; conditions: for AUC(0-inf) / AUC(0-t) / Cmax / clearance / half-life / Vd: male, Sprague-Dawley (SD), rat, plasma; for Vd: read-out: VSS
Source text: Test purposes: The following method was used to determine the pharmacokinetics of the compound of the present invention.
Test Materials: • Experimental reagents and test samples used: Propranolol (internal standard), methanol, ammonium acetate, K2EDTA (potassium ethylenediaminetetraacetic acid), formic acid, acetonitrile MTBE (methyl tert-butyl ether). KolliphorHS15 (macrogol 12 hydroxystearate), DMSO (dimethyl sulfoxide) are commercially available • SD rats: male, 180-220 g, 7-8 weeks old, purchased from Human Slack Experimental Animal Co., Ltd.
Each test sample prepared was completely dissolved in a mixture of 5% DMSO+5% KolliphorHS 15+90% Saline according solubility property thereof.
Samples were processed by liquid-liquid extraction, chromatographically separated, quantitatively analyzed by multiple reaction ion monitoring (MRM) on a triple quadrupole tandem mass spectrometer, and the concentration of the results was calculated by instrument quantitative software.
30 μL of plasma sample was precisely pipetted, added with 250 μL of internal standard, and vortexed to mix thoroughly. Plasma samples was extracted once with 1 mL of MTBE, centrifuged at 13,000 rpm for 2 min at 4° C. 800 μL of the supernatant was sucked out, evaporated to dryness in a 96-well nitrogen blower, and the residue was reconstituted with 150 μL of methanol/water (v/v=50/50), vortexed to mix, and injected with an injection volume of 8 μL.
LC/MS/MS method was used to determine the content of the test compound in rat plasma after administration of different compounds.
Pharmacokinetic parameters were calculated using a noncompartmental method by WinNonLin 6.1 software.

| SMILES | EC50 [1] | EC50 [2] | F ([3]; ig, 5 mg/kg) | AUC(0-inf) ([3]; iv, 1 mg/kg) | AUC(0-t) ([3]; iv, 1 mg/kg) | Cmax ([3]; iv, 1 mg/kg) | clearance ([3]; iv, 1 mg/kg) | half-life ([3]; iv, 1 mg/kg) | Vd ([3]; iv, 1 mg/kg) | AUC(0-inf) ([3]; po, ig, 5 mg/kg) | AUC(0-t) ([3]; po, ig, 5 mg/kg) | Cmax ([3]; po, ig, 5 mg/kg) | half-life ([3]; po, ig, 5 mg/kg) |
| --- | --- | --- | --- | --- | --- | --- | --- | --- | --- | --- | --- | --- | --- |
| O=C1c2ccc(Oc3c(Cl)cc(-n4ncc(=O)[nH]c4=O)cc3Cl)cc2CCN1Cc1ccc(Cl)cc1 [Example 37, 2-(3,5-dichloro-4-((2-(4-chlorobenzyl)-1-oxo-1,2,3,4-tetrahydroisoquinolin-6-yl)oxy)phenyl)-1,2,4-triazine-3,5(2H,4H)-dione] | 0.043 µM | > 100 µM | 116.3% | 21100 ng·h/mL | 20900 ng·h/mL | 4200 ng/mL | 0.789 mL/min/kg | 3.61 h | 0.212 L/kg | 122000 ng·h/mL | 121000 ng·h/mL | 12300 ng/mL | 3.5 h |
| O=C1c2ccc(Oc3c(Cl)cc(-n4ncc(=O)[nH]c4=O)cc3Cl)cc2CCN1c1cccc(F)c1 [Example 42, 2-(3,5-dichloro-4-((2-(3-fluorophenyl)-1-oxo-1,2,3,4-tetrahydroisoquinolin-6-yl)oxy)phenyl)-1,2,4-triazine-3,5(2H,4H)-dione] | 0.016 µM | > 100 µM | 134.8% | 1960 ng·h/mL | 1860 ng·h/mL | 4340 ng/mL | 8.49 mL/min/kg | 2.97 h | 0.658 L/kg | 13200 ng·h/mL | 12700 ng·h/mL | 7700 ng/mL | 2.53 h |
| O=C1c2ccc(Oc3c(Cl)cc(-n4ncc(=O)[nH]c4=O)cc3Cl)cc2CCN1Cc1cccc(OC(F)(F)F)c1 [Example 43, 2-(3,5-dichloro-4-((1-oxo-2-(3-(trifluoromethoxy)benzyl)-1,2,3,4-tetrahydroisoquinolin-6-yl)oxy)phenyl)-1,2,4-triazine-3,5(2H,4H)-dione] | 0.031 µM | > 100 µM | 68.4% | 47700 ng·h/mL | 39800 ng·h/mL | 3410 ng/mL | 0.349 mL/min/kg | 9.52 h | 0.26 L/kg | 212000 ng·h/mL | 134000 ng·h/mL | 8120 ng/mL | 15.7 h |
| O=C1c2ccc(Oc3c(Cl)cc(-n4ncc(=O)[nH]c4=O)cc3Cl)cc2CCN1c1ccccc1F [Example 44, 2-(3,5-dichloro-4-((2-(2-fluorophenyl)-1-oxo-1,2,3,4-tetrahydroisoquinolin-6-yl)oxy)phenyl)-1,2,4-triazine-3,5(2H,4H)-dione] | 0.0097 µM | > 100 µM | 133.3% | 2150 ng·h/mL | 2110 ng·h/mL | 5430 ng/mL | 7.74 mL/min/kg | 2.11 h | 0.4 L/kg | 14300 ng·h/mL | 13900 ng·h/mL | 9030 ng/mL | 1.64 h |
| N#Cc1nn(-c2cc(Cl)c(Oc3ccc4c(c3)CCN(C=O)C4=O)c(Cl)c2)c(=O)[nH]c1=O [Example 51, 2-(3,5-dichloro-4-((2-formyl-1-oxo-1,2,3,4-tetrahydroisoquinolin-6-yl)oxy)phenyl)-3,5-dioxo-2,3,4,5-tetrahydro-1,2,4-triazine-6-carbonitrile] | 0.904 µM | > 100 µM | – | – | – | – | – | – | – | – | – | – | – |
| O=C1c2ccc(Oc3c(Cl)cc(-n4ncc(=O)[nH]c4=O)cc3Cl)cc2CCN1c1nccs1 [Example 52, 2-(3,5-dichloro-4-((1-oxo-2-(thiazol-2-yl)-1,2,3,4-tetrahydroisoquinolin-6-yl)oxy)phenyl)-1,2,4-triazine-3,5(2H,4H)-dione] | 0.016 µM | 0.23 µM | – | – | – | – | – | – | – | – | – | – | – |
